Here are results for nine compounds from patent US20240246916A1, “7-NITRO-8-HYDROXYQUINOLINE DERIVATIVES, PREPARATION METHOD THEREFORE AND MEDICAL USE THEREOF” (Jiangsu Yahong Meditech Co., Ltd., priority 2021, published 2024).

SMILES strings stand for the structures. ≈ marks a conversion by molar mass, not a printed value. Bounds are passed on as bounds.

Common to all, as to assay type: cell-based
Assay [1] relates to Escherichia coli (carbapenem-resistant clinical isolate; ATCC25922). The assay is described as follows: MIC by micro broth dilution (CLSI), Escherichia coli. Particulars: Escherichia coli; for MIC50 / MIC90: ATCC25922, Clinical strain; for MIC50: read-out: MIC50; for MIC90: read-out: MIC90; for MIC: Standard strain ATCC25922, read-out: MIC. In short, it runs like this: (§1)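 CAMHB microdilution; DMSO stocks, range 128–0.06 mg/L; inoculum 10^5 CFU/mL (0.5 McFarland, 1:100); 35±2° C, 20 h, air; CLSI M100 2019 interpretation.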
(Broth dilution looks for growth in wells or tubes with falling amounts of substance.)

The test system of assay [2] is Staphylococcus aureus (methicillin-resistant and sensitive clinical isolates; ATCC29213). The assay is described as follows: MIC by micro broth dilution (CLSI), Staphylococcus aureus. Particulars: for MIC50 / MIC90: Clinical strain; for MIC50: read-out: MIC50; for MIC90: read-out: MIC90; for MIC: Standard strain ATCC29213, read-out: MIC. In short, it runs like this: as §1

The test system of assay [3] is Bladder cancer cell line UM-UC-3. The assay is described as follows: Inhibitory activity on cancer cells, CellTiter-Glo viability, UM-UC-3. Particulars: Homo sapiens, UMUC3, 72 hours treatment. As for the experimental part:
(§2) HUVEC (purchased from Allcells Biological Technology (Shanghai) Co., Ltd.); UM-UC-3 (ATCC); LNCaP (ATCC); RM-1 (purchased from Nanjing Cobioer Biosciences Co., Ltd.) (1) On the first day, the cells were seeded in a 96-well plate, and the previous medium was poured off. 5 mL of DPBS was added to wash the cells, and then removed by a pipette and discarded. Then, 1 mL of trypsin (0.25%) was added, and the plate was placed in a cell culture incubator at 37 °C, 5% CO2 for digestion, and taken out after about 2 to 5 minutes. New corresponding medium was added, and pipetted to resuspend the cells evenly, and the cells were then counted with an automated cell counter. Regarding HUVEC, the medium used was endothelial cell complete medium; regarding UM-UC-3, the medium used was 89 v % EMEM+10 v % fetal bovine serum+1 v % penicillin-streptomycin double anti-body; regarding LNcaP, the medium used was 89 v % RPM11640+10 v % fetal bovine serum+1 v % penicillin-streptomycin double anti-body; and regarding RM1, the medium used was 89 v % DMEM+10 v % fetal bovine serum+1 v % penicillin-streptomycin double anti-body. (2) HUVEC cells were seeded in columns 1 to 11 of a 96-well plate (Corning, Cat. No. 3610) at a density of 2000 cells per well in 100 μL of medium, and the medium free of cell was added to the wells of column 12. The other three types of cells were also seeded, wherein UM-UC-3 and RM-1 cells were seeded at a density of 3000 cells per well, and LNCap cells were seeded at a density of 5000 cells per well. Then, the plate was placed in an incubator at 37° C., 5% CO2 for 24 hours. (3) On the second day, the compounds of the present invention and the reference drug nitroxoline (obtained according to the preparation method disclosed in the prior art) were diluted in gradient (2.5 folds, started at 100 μmol) to obtain 8 dose points (there were a total of 8 columns of wells; the first column of wells had the highest concentration, the concentration decreased in turn, and the last column of wells had the lowest concentration). 10 μL of the compound diluted in gradient was added to the 100 μL of cells in column 1 to column 10 with an 8-channel pipette. 10 μL of the corresponding medium containing 0.33 v % DMSO was added to column 11 and column 12. The plate was incubated in an incubator at 37° C., 5% CO2 for 72 hours (note: column 11 was used as MAX well with cells and no compounds; and column 12 was used as MIN well with no cells and no compounds). (4) After treating with the compounds of the present invention for 72 hours, the cell viability detection reagents in the above CellTiter-Glo® assay kit were added to the 96-well plate at 50 μL per well according to the instructions. The plate was shaken on a shaker in the dark for 5 to 10 minutes, and then the cell activity was determined by a multifunctional microplate reader. Finally, the growth inhibition of the compounds of the present invention on the cells was plotted by XLFIT 5.3 software, and the IC50 values of the compounds of the present invention were calculated.

The test system of assay [4] is Acinetobacter baumannii (carbapenem-resistant clinical isolates; ATCC19606). Put plainly: MIC by micro broth dilution (CLSI), Acinetobacter baumannii. The conditions noted are these: Acinetobacter baumannii; for MIC50 / MIC90: ATCC19606, Clinical strain; for MIC50: read-out: MIC50; for MIC90: read-out: MIC90; for MIC: Standard strain ATCC19606, read-out: MIC. In short, it runs like this:
as §1

For assay [5], the system named is Endothelial cell line HUVEC. Put plainly: Inhibitory activity on cells, CellTiter-Glo viability, HUVEC. The conditions noted are these: Homo sapiens, 72 hours treatment. The procedure: as §2
(In ATP-based viability assays light output follows the ATP content of the culture.)

For assay [6], the system named is Prostate cancer cell line LNcaP. The assay is described as follows: Inhibitory activity on cancer cells, CellTiter-Glo viability, LNcaP. The conditions noted are these: Homo sapiens, 72 hours treatment. The procedure:
as §2

The subject of assay [7] is Mouse prostate cancer cell line RM1. Put plainly: Inhibitory activity on cancer cells, CellTiter-Glo viability, RM1. The conditions noted are these: 72 hours treatment. As for the experimental part:
as §2

Consider `O=[N+]([O-])c1ccc2c(-n3ccnc3)ccnc2c1O` [Example 15, 4-(1H-Imidazol-1-yl)-7-nitroquinolin-8-ol], for which the MIC50 in assay [1] was 128 µg/mL (≈ 500 µM); in assay [2] it was 64 µg/mL (≈ 250 µM); in assay [4] it was greater than 128 µg/mL. The MIC90 in assay [1] was 128 µg/mL (≈ 500 µM); in assay [2], 128 µg/mL (≈ 500 µM); in assay [4] it was greater than 128 µg/mL. The MIC in assay [1] was greater than 128 µg/mL; in assay [2], 128 µg/mL (≈ 500 µM); in assay [4], greater than 128 µg/mL. Also, the IC50 in assay [3] was 36.2 µM; in assay [5] it was 32.3 µM; in assay [6], 35.2 µM.
`O=[N+]([O-])c1ccc2c(Br)ccnc2c1O` [Example 16, 4-Bromo-7-nitroquinolin-8-ol]: the MIC50 in assay [1] was 16 µg/mL (≈ 59.5 µM); in assay [2] it was 8 µg/mL (≈ 29.7 µM); in assay [4], 8 µg/mL (≈ 29.7 µM). In addition, the MIC90 in assay [1] was 16 µg/mL (≈ 59.5 µM); in assay [2], 8 µg/mL (≈ 29.7 µM); in assay [4], 8 µg/mL (≈ 29.7 µM). Also, the MIC was determined as 32 µg/mL (≈ 119 µM) in assay [1], 8 µg/mL (≈ 29.7 µM) in assay [2] and 32 µg/mL (≈ 119 µM) in assay [4]. In addition, the figures for the IC50 in assay [3], in assay [5] and in assay [6] were 8.9 µM, 8.1 µM and 3.9 µM, respectively.
Take `CN(C)c1ccnc2c(O)c([N+](=O)[O-])ccc12` [Example 17, 4-(Dimethylamino)-7-nitroquinolin-8-ol]: the MIC50 was 64 µg/mL (≈ 274 µM) in assay [1], 128 µg/mL (≈ 549 µM) in assay [2] and 128 µg/mL (≈ 549 µM) in assay [4]. For the same compound, the MIC90 in assay [1] stood at 64 µg/mL (≈ 274 µM); in assay [2], 128 µg/mL (≈ 549 µM); in assay [4], 128 µg/mL (≈ 549 µM). The MIC in assay [1], in assay [2] and in assay [4] was 128 µg/mL (≈ 549 µM) in each case. For the same compound, the IC50 in assay [3] stood at 16.9 µM; in assay [5], 27.4 µM; in assay [6] it was 23.6 µM.
Consider `CN1CCN(c2ccnc3c(O)c([N+](=O)[O-])ccc23)CC1` [Example 18, 4-(4-Methylpiperazinyl)-7-nitroquinolin-8-ol], for which the MIC50 in assay [1], in assay [2] and in assay [4] was 128 µg/mL (≈ 444 µM) throughout. The MIC90 in assay [1], in assay [2] and in assay [4] was 128 µg/mL (≈ 444 µM) each time. In addition, the MIC in assay [1], in assay [2] and in assay [4] was 128 µg/mL (≈ 444 µM) throughout. Also, the IC50 in assay [3] came out at 13.2 µM; in assay [5] it was 64.4 µM; in assay [6], 21.2 µM.
On to `CC1CCCCN1c1ccnc2c(O)c([N+](=O)[O-])ccc12` (centres unmarked) [Example 20, 4-(2-Methylpiperidinyl)-7-nitroquinolin-8-ol], for which the IC50 in assay [3] was determined as 4.38 µM; in assay [5], 5.6 µM; in assay [7] it was 6.8 µM; in assay [6] it was 3.33 µM.
Consider `O=[N+]([O-])c1ccc2c(N3CC=CC3)ccnc2c1O` [Example 23, 4-(2,5-Dihydro-1H-pyrrolyl)-7-nitroquinolin-8-ol], for which the IC50 in assay [3], in assay [5], in assay [7] and in assay [6] was greater than 100 µM throughout.
Consider `O=[N+]([O-])c1cc(Cl)c2c(C3CC3)ccnc2c1O` [Example 49, 5-Chloro-4-cyclopropyl-7-nitroquinolin-8-ol], for which the IC50 in assay [3] came to 4.07 µM; in assay [5], 1.59 µM; in assay [7] it was 5.32 µM; in assay [6], 1.04 µM.
For `CCC(C)OC(=O)N1CCN(c2ccnc3c(O)c([N+](=O)[O-])cc(Cl)c23)CC1` (centres unmarked) [Example 57, (1-Methyl)propyl 4-(5-chloro-8-hydroxy-7-nitroquinolin-4-yl)piperazine-1-carboxylate], the IC50 in assay [3] was 0.49 µM; in assay [5], 0.47 µM; in assay [7] it was 2.35 µM; in assay [6], 0.55 µM.
On to `CC(C)OC(=O)N1CCN(c2ccnc3c(O)c([N+](=O)[O-])cc(Cl)c23)CC1` [Example 58, Isopropyl 4-(5-chloro-8-hydroxy-7-nitroquinolin-4-yl)piperazine-1-carboxylate], for which the IC50 in assay [3] was 2.55 µM; in assay [5], 0.68 µM; in assay [7], 0.91 µM; in assay [6] it was 0.89 µM.

By MIC50 is commonly meant the lowest concentration that inhibits either 50% of growth or 50% of the strains tested, depending on the study. As usually defined, the MIC90 is the lowest concentration that inhibits either 90% of growth or 90% of the strains tested, depending on the study. By MIC is commonly meant the lowest concentration that inhibits growth of the organism. For orientation: IC50 means the midpoint of a concentration-inhibition curve. A low value points to inhibition by little substance.
